Measurements as given in US20220324815A1, “2-PHENOXY-PYRIMIDINE DERIVATIVES AS HERBICIDAL COMPOUNDS” (SYNGENTA CROP PROTECTION AG, priority 2019, published 2022).

Legend:
Assay type in all cases: in vivo
Conditions in all cases: 250 g/ha unless otherwise stated, evaluated after 13 days, five-point scale
[1] = test system: Amaranthus retoflexus (AMARE); assay: Test 1 glasshouse herbicide test, post-emergence application (Table B1)
Experimental: (§1) Seeds of a variety of test species are sown in standard soil in pots (Lolium perenne (LOLPE), Solanum nigrum (SOLNI), Amaranthus retoflexus (AMARE), Setaria faberi (SETFA), Echinochloa crus-galli (ECHCG) and Ipomoea hederacea (IPOHE)). After cultivation for one day (pre-emergence) or after 8 days cultivation (post-emergence) under controlled conditions in a glasshouse (at 24/16° C., day/night; 14 hours light; 65% humidity), the plants are sprayed with an aqueous spray solution derived from the formulation of the technical active ingredient in acetone/water (50:50) solution containing 0.5% Tween 20 (polyoxyethelyene sorbitan monolaurate, CAS RN 9005-64-5). Compounds are applied at 250 g/ha unless otherwise stated. The test plants are then grown in a glasshouse under controlled conditions in a glasshouse (at 24/16° C., day/night; 14 hours light; 65% humidity) and watered twice daily. After 13 days for pre and post-emergence, the test is evaluated for the percentage damage caused to the plant. The biological activities (% phytotoxicity) are shown in Tables B1 and B2 below using a five-point scale (5=81 to 100%; 4=61 to 80%; 3=41 to 60%; 2=21 to 40%; 1=0 to 20%).

[2] = test system: Ipomoea hederacea (IPOHE); assay: as above
Experimental: as §1

[3] = test system: Echinochloa crus-galli (ECHCG); assay: as above
Experimental: as §1

[4] = test system: Setaria faberi (SETFA); assay: as above
Experimental: as §1

[5] = test system: Amaranthus retoflexus (AMARE); assay: Test 1 glasshouse herbicide test, pre-emergence application (Table B2)
Experimental: as §1

[6] = test system: Ipomoea hederacea (IPOHE); assay: as above
Experimental: as §1

[7] = test system: Echinochloa crus-galli (ECHCG); assay: as above
Experimental: as §1

[8] = test system: Setaria faberi (SETFA); assay: as above
Experimental: as §1

C#CCSc1ccccc1Oc1ncc(Cl)cn1 [Compound A45]
% phytotoxicity AMARE, post-emergence application [1]: 3 (3=41 to 60%)
% phytotoxicity IPOHE, post-emergence application [2]: 1 (1=0 to 20%)
% phytotoxicity ECHCG, post-emergence application [3]: 3 (3=41 to 60%)
% phytotoxicity SETFA, post-emergence application [4]: 2 (2=21 to 40%)
% phytotoxicity AMARE, pre-emergence application [5]: 3 (3=41 to 60%)
% phytotoxicity IPOHE, pre-emergence application [6]: 1 (1=0 to 20%)
% phytotoxicity ECHCG, pre-emergence application [7]: 3 (3=41 to 60%)
% phytotoxicity SETFA, pre-emergence application [8]: 3 (3=41 to 60%)

C#CCS(=O)(=O)c1ccccc1Oc1ncc(Cl)cn1 [Compound A46]
% phytotoxicity AMARE, post-emergence application [1]: 1 (1=0 to 20%)
% phytotoxicity IPOHE, post-emergence application [2]: 1 (1=0 to 20%)
% phytotoxicity ECHCG, post-emergence application [3]: 1 (1=0 to 20%)
% phytotoxicity SETFA, post-emergence application [4]: 1 (1=0 to 20%)
% phytotoxicity AMARE, pre-emergence application [5]: 1 (1=0 to 20%)
% phytotoxicity IPOHE, pre-emergence application [6]: 1 (1=0 to 20%)
% phytotoxicity ECHCG, pre-emergence application [7]: 1 (1=0 to 20%)
% phytotoxicity SETFA, pre-emergence application [8]: 1 (1=0 to 20%)

C=CCS(=O)(=O)c1ccccc1Oc1ncc(Cl)cn1 [Compound A48]
% phytotoxicity AMARE, post-emergence application [1]: 2 (2=21 to 40%)
% phytotoxicity IPOHE, post-emergence application [2]: 1 (1=0 to 20%)
% phytotoxicity ECHCG, post-emergence application [3]: 1 (1=0 to 20%)
% phytotoxicity SETFA, post-emergence application [4]: 1 (1=0 to 20%)
% phytotoxicity AMARE, pre-emergence application [5]: 1 (1=0 to 20%)
% phytotoxicity IPOHE, pre-emergence application [6]: 1 (1=0 to 20%)
% phytotoxicity ECHCG, pre-emergence application [7]: 1 (1=0 to 20%)
% phytotoxicity SETFA, pre-emergence application [8]: 1 (1=0 to 20%)

CCCSc1ccccc1Oc1ncc(Cl)cn1 [Compound A49]
% phytotoxicity AMARE, post-emergence application [1]: 4 (4=61 to 80%)
% phytotoxicity IPOHE, post-emergence application [2]: 4 (4=61 to 80%)
% phytotoxicity ECHCG, post-emergence application [3]: 4 (4=61 to 80%)
% phytotoxicity SETFA, post-emergence application [4]: 4 (4=61 to 80%)
% phytotoxicity AMARE, pre-emergence application [5]: 5 (5=81 to 100%)
% phytotoxicity IPOHE, pre-emergence application [6]: 3 (3=41 to 60%)
% phytotoxicity ECHCG, pre-emergence application [7]: 5 (5=81 to 100%)
% phytotoxicity SETFA, pre-emergence application [8]: 5 (5=81 to 100%)

CCCS(=O)(=O)c1ccccc1Oc1ncc(Cl)cn1 [Compound A50]
% phytotoxicity AMARE, post-emergence application [1]: 4 (4=61 to 80%)
% phytotoxicity IPOHE, post-emergence application [2]: 2 (2=21 to 40%)
% phytotoxicity ECHCG, post-emergence application [3]: 1 (1=0 to 20%)
% phytotoxicity SETFA, post-emergence application [4]: 1 (1=0 to 20%)
% phytotoxicity AMARE, pre-emergence application [5]: 5 (5=81 to 100%)
% phytotoxicity IPOHE, pre-emergence application [6]: 2 (2=21 to 40%)
% phytotoxicity ECHCG, pre-emergence application [7]: 4 (4=61 to 80%)
% phytotoxicity SETFA, pre-emergence application [8]: 5 (5=81 to 100%)

O=S(=O)(CC1CC1)c1ccccc1Oc1ncc(Cl)cn1 [Compound A51]
% phytotoxicity AMARE, post-emergence application [1]: 3 (3=41 to 60%)
% phytotoxicity IPOHE, post-emergence application [2]: 1 (1=0 to 20%)
% phytotoxicity ECHCG, post-emergence application [3]: 1 (1=0 to 20%)
% phytotoxicity SETFA, post-emergence application [4]: 1 (1=0 to 20%)
% phytotoxicity AMARE, pre-emergence application [5]: 4 (4=61 to 80%)
% phytotoxicity IPOHE, pre-emergence application [6]: 1 (1=0 to 20%)
% phytotoxicity ECHCG, pre-emergence application [7]: 1 (1=0 to 20%)
% phytotoxicity SETFA, pre-emergence application [8]: 2 (2=21 to 40%)

CC(C)=CCSc1ccccc1Oc1ncc(Cl)cn1 [Compound A52]
% phytotoxicity AMARE, post-emergence application [1]: 3 (3=41 to 60%)
% phytotoxicity IPOHE, post-emergence application [2]: 1 (1=0 to 20%)
% phytotoxicity ECHCG, post-emergence application [3]: 4 (4=61 to 80%)
% phytotoxicity SETFA, post-emergence application [4]: 3 (3=41 to 60%)
% phytotoxicity AMARE, pre-emergence application [5]: 1 (1=0 to 20%)
% phytotoxicity IPOHE, pre-emergence application [6]: 1 (1=0 to 20%)
% phytotoxicity ECHCG, pre-emergence application [7]: 2 (2=21 to 40%)
% phytotoxicity SETFA, pre-emergence application [8]: 1 (1=0 to 20%)

CCCCCCSc1ccccc1Oc1ncc(Cl)cn1 [Compound A53]
% phytotoxicity AMARE, post-emergence application [1]: 4 (4=61 to 80%)
% phytotoxicity IPOHE, post-emergence application [2]: 1 (1=0 to 20%)
% phytotoxicity ECHCG, post-emergence application [3]: 1 (1=0 to 20%)
% phytotoxicity SETFA, post-emergence application [4]: 1 (1=0 to 20%)
% phytotoxicity AMARE, pre-emergence application [5]: 3 (3=41 to 60%)
% phytotoxicity IPOHE, pre-emergence application [6]: 1 (1=0 to 20%)
% phytotoxicity ECHCG, pre-emergence application [7]: 2 (2=21 to 40%)
% phytotoxicity SETFA, pre-emergence application [8]: 3 (3=41 to 60%)

FC(F)(F)CSc1ccccc1Oc1ncc(Cl)cn1 [Compound A55]
% phytotoxicity AMARE, post-emergence application [1]: 5 (5=81 to 100%)
% phytotoxicity IPOHE, post-emergence application [2]: 4 (4=61 to 80%)
% phytotoxicity ECHCG, post-emergence application [3]: 4 (4=61 to 80%)
% phytotoxicity SETFA, post-emergence application [4]: 4 (4=61 to 80%)
% phytotoxicity AMARE, pre-emergence application [5]: 5 (5=81 to 100%)
% phytotoxicity IPOHE, pre-emergence application [6]: 2 (2=21 to 40%)
% phytotoxicity ECHCG, pre-emergence application [7]: 5 (5=81 to 100%)
% phytotoxicity SETFA, pre-emergence application [8]: 5 (5=81 to 100%)

COCCCSc1ccccc1Oc1ncc(Cl)cn1 [Compound A56]
% phytotoxicity AMARE, post-emergence application [1]: 2 (2=21 to 40%)
% phytotoxicity IPOHE, post-emergence application [2]: 1 (1=0 to 20%)
% phytotoxicity ECHCG, post-emergence application [3]: 1 (1=0 to 20%)
% phytotoxicity SETFA, post-emergence application [4]: 1 (1=0 to 20%)
% phytotoxicity AMARE, pre-emergence application [5]: 2 (2=21 to 40%)
% phytotoxicity IPOHE, pre-emergence application [6]: 2 (2=21 to 40%)
% phytotoxicity ECHCG, pre-emergence application [7]: 1 (1=0 to 20%)
% phytotoxicity SETFA, pre-emergence application [8]: 2 (2=21 to 40%)

Clc1cnc(Oc2ccccc2SCCn2cc(Cl)cn2)nc1 [Compound A57]
% phytotoxicity AMARE, post-emergence application [1]: 5 (5=81 to 100%)
% phytotoxicity IPOHE, post-emergence application [2]: 2 (2=21 to 40%)
% phytotoxicity ECHCG, post-emergence application [3]: 4 (4=61 to 80%)
% phytotoxicity SETFA, post-emergence application [4]: 4 (4=61 to 80%)
% phytotoxicity AMARE, pre-emergence application [5]: 4 (4=61 to 80%)
% phytotoxicity IPOHE, pre-emergence application [6]: 1 (1=0 to 20%)
% phytotoxicity ECHCG, pre-emergence application [7]: 3 (3=41 to 60%)
% phytotoxicity SETFA, pre-emergence application [8]: 4 (4=61 to 80%)

FCCCSc1ccccc1Oc1ncc(Cl)cn1 [Compound A59]
% phytotoxicity AMARE, post-emergence application [1]: 5 (5=81 to 100%)
% phytotoxicity IPOHE, post-emergence application [2]: 2 (2=21 to 40%)
% phytotoxicity ECHCG, post-emergence application [3]: 4 (4=61 to 80%)
% phytotoxicity SETFA, post-emergence application [4]: 2 (2=21 to 40%)
% phytotoxicity AMARE, pre-emergence application [5]: 5 (5=81 to 100%)
% phytotoxicity IPOHE, pre-emergence application [6]: 2 (2=21 to 40%)
% phytotoxicity ECHCG, pre-emergence application [7]: 5 (5=81 to 100%)
% phytotoxicity SETFA, pre-emergence application [8]: 4 (4=61 to 80%)

FCCSc1ccccc1Oc1ncc(Cl)cn1 [Compound A60]
% phytotoxicity AMARE, post-emergence application [1]: 3 (3=41 to 60%)
% phytotoxicity IPOHE, post-emergence application [2]: 2 (2=21 to 40%)
% phytotoxicity ECHCG, post-emergence application [3]: 1 (1=0 to 20%)
% phytotoxicity SETFA, post-emergence application [4]: 1 (1=0 to 20%)
% phytotoxicity AMARE, pre-emergence application [5]: 4 (4=61 to 80%)
% phytotoxicity IPOHE, pre-emergence application [6]: 1 (1=0 to 20%)
% phytotoxicity ECHCG, pre-emergence application [7]: 2 (2=21 to 40%)
% phytotoxicity SETFA, pre-emergence application [8]: 3 (3=41 to 60%)

FC(F)CSc1ccccc1Oc1ncc(Cl)cn1 [Compound A61]
% phytotoxicity AMARE, post-emergence application [1]: 5 (5=81 to 100%)
% phytotoxicity IPOHE, post-emergence application [2]: 2 (2=21 to 40%)
% phytotoxicity ECHCG, post-emergence application [3]: 2 (2=21 to 40%)
% phytotoxicity SETFA, post-emergence application [4]: 2 (2=21 to 40%)
% phytotoxicity AMARE, pre-emergence application [5]: 5 (5=81 to 100%)
% phytotoxicity IPOHE, pre-emergence application [6]: 2 (2=21 to 40%)
% phytotoxicity ECHCG, pre-emergence application [7]: 3 (3=41 to 60%)
% phytotoxicity SETFA, pre-emergence application [8]: 4 (4=61 to 80%)

C=C(C)CSc1ccccc1Oc1ncc(Cl)cn1 [Compound A62]
% phytotoxicity AMARE, post-emergence application [1]: 1 (1=0 to 20%)
% phytotoxicity IPOHE, post-emergence application [2]: 1 (1=0 to 20%)
% phytotoxicity ECHCG, post-emergence application [3]: 4 (4=61 to 80%)
% phytotoxicity SETFA, post-emergence application [4]: 3 (3=41 to 60%)
% phytotoxicity AMARE, pre-emergence application [5]: 1 (1=0 to 20%)
% phytotoxicity IPOHE, pre-emergence application [6]: 1 (1=0 to 20%)
% phytotoxicity ECHCG, pre-emergence application [7]: 3 (3=41 to 60%)
% phytotoxicity SETFA, pre-emergence application [8]: 3 (3=41 to 60%)

CCC(CC)CSc1ccccc1Oc1ncc(Cl)cn1 [Compound A64]
% phytotoxicity AMARE, post-emergence application [1]: 2 (2=21 to 40%)
% phytotoxicity IPOHE, post-emergence application [2]: 2 (2=21 to 40%)
% phytotoxicity ECHCG, post-emergence application [3]: 1 (1=0 to 20%)
% phytotoxicity SETFA, post-emergence application [4]: 2 (2=21 to 40%)
% phytotoxicity AMARE, pre-emergence application [5]: 1 (1=0 to 20%)
% phytotoxicity IPOHE, pre-emergence application [6]: 1 (1=0 to 20%)
% phytotoxicity ECHCG, pre-emergence application [7]: 1 (1=0 to 20%)
% phytotoxicity SETFA, pre-emergence application [8]: 1 (1=0 to 20%)

Clc1cnc(Oc2ccccc2SCc2cccc(Cl)c2)nc1 [Compound A66]
% phytotoxicity AMARE, post-emergence application [1]: 4 (4=61 to 80%)
% phytotoxicity IPOHE, post-emergence application [2]: 2 (2=21 to 40%)
% phytotoxicity ECHCG, post-emergence application [3]: 4 (4=61 to 80%)
% phytotoxicity SETFA, post-emergence application [4]: 3 (3=41 to 60%)
% phytotoxicity AMARE, pre-emergence application [5]: 1 (1=0 to 20%)
% phytotoxicity IPOHE, pre-emergence application [6]: 1 (1=0 to 20%)
% phytotoxicity ECHCG, pre-emergence application [7]: 2 (2=21 to 40%)
% phytotoxicity SETFA, pre-emergence application [8]: 2 (2=21 to 40%)
